The target of data set [1] is T1, reuptake of dopamine (DA) in synaptosomes (Rattus norvegicus, UniProt P23977).
T1 construct: in synaptosomes as described in WO 97/16451 (NeuroSearch A/S); from tissue
Briefly: Inhibition of dopamine reuptake in synaptosomes. Format: biochemical. Conditions: 3H-DA, read-out: DA-uptake IC50. The source says:
(§1) Compounds of the invention may be tested for their ability to inhibit reuptake of the monoamines dopamine, noradrenaline and serotonin in synaptosomes e.g. such as described in WO 97/30997 (NeuroSearch A/S) or WO 97/16451 (NeuroSearch A/S). Based on the balanced activity observed in these tests the compound of the invention is considered useful for the treatment, prevention or alleviation of a disease or a disorder or a condition of a mammal, including a human, which disease, disorder or condition is responsive to inhibition of monoamine neurotransmitter re-uptake in the central nervous system.
(§2) Compounds were tested for their ability to inhibit the reuptake of the monoamine neurotransmitters dopamine (DA) noradrenaline (NA) and serotonine (5-HT) in synaptosomes as described in WO 97/16451 (NeuroSearch A/S).
(§3) The test values are given as IC50 (the concentration (μM) of the test substance which inhibits the specific binding of ^3H-DA, ^3H-NA, or ^3H-5-HT by 50%).

The target in data set [2] is T2, reuptake of serotonine (5-HT) in synaptosomes (Rattus norvegicus, UniProt P31652).
T2 construct: in synaptosomes as described in WO 97/16451 (NeuroSearch A/S); from tissue
T2 sequence (P31652 whole entry): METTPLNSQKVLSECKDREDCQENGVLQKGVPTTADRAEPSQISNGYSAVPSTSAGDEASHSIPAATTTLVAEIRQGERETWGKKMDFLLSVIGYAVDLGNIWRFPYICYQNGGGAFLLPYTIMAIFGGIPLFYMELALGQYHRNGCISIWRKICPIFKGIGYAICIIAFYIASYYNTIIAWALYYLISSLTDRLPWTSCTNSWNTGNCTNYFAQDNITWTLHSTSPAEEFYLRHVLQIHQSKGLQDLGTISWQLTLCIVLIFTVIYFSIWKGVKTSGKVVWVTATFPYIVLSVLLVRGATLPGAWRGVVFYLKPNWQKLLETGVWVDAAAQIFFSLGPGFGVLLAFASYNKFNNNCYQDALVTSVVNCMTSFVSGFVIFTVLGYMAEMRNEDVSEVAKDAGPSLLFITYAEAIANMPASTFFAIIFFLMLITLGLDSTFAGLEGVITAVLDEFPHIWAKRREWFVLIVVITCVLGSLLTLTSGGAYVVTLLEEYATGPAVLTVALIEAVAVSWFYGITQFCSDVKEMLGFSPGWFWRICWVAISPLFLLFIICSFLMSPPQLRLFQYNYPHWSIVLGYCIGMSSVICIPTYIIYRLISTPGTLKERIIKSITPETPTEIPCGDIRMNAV
Briefly: Inhibition of 5-HT reuptake in synaptosomes. Format: biochemical. As to conditions: 3H-5-HT, read-out: 5-HT-uptake IC50.
Excerpt: as §1, §2, §3

Data set [3] addresses T3, reuptake of noradrenaline (NA) in synaptosomes (Rattus norvegicus, UniProt Q63380).
T3 construct: in synaptosomes as described in WO 97/16451 (NeuroSearch A/S); from tissue
In words: Inhibition of noradrenaline reuptake in synaptosomes. Format: biochemical. As to conditions: 3H-NA, read-out: NA-uptake IC50.
Excerpt: as §1, §2, §3

pIC50: −log10 of the molar value. Counter-ions that a name gives are not always drawn.

T3 sequence (Q63380 1-617): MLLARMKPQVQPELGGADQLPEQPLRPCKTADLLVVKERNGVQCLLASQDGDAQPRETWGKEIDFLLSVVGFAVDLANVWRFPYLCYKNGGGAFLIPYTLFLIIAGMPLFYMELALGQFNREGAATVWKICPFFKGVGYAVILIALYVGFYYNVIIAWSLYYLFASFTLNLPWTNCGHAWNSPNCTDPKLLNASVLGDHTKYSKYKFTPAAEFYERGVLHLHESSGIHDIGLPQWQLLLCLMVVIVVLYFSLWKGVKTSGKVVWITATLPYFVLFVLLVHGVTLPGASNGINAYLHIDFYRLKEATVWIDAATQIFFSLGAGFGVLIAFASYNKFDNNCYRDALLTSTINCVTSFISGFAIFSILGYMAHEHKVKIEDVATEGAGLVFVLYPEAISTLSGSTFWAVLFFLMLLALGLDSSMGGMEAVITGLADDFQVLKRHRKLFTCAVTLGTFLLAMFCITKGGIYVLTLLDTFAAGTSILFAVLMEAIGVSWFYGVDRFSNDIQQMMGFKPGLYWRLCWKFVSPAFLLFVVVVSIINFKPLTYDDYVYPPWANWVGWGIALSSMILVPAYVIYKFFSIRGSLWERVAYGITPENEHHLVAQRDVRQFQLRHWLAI
T1 sequence (P23977 whole entry): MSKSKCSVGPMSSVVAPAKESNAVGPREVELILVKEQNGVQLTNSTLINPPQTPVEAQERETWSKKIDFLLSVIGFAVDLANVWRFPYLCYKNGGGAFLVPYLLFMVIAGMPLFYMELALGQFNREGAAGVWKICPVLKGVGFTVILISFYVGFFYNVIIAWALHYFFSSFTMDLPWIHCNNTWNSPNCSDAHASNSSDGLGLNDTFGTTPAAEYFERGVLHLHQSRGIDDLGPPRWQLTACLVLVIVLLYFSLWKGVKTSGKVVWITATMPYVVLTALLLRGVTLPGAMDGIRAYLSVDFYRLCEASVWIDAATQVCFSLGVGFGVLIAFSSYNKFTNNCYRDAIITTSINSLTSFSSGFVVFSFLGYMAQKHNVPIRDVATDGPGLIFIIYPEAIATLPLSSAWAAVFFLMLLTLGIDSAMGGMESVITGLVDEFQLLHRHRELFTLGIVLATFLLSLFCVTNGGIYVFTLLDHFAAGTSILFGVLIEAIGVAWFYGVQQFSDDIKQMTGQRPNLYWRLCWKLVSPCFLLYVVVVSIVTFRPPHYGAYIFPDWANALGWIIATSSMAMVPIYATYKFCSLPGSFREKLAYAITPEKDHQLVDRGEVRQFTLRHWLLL

The melting point is the temperature, or range, at which the solid turns liquid. On to `O=c1n(CCN2CCN(c3ccc4[nH]ccc4c3)CC2)c2ccccc2n1C1=CCCCC1` (as salt: fumaric acid salt) [Compound A7, 1-Cyclohex-1-enyl-3-{2-[4-(1H-indol-5-yl)-piperazin-1-yl]-ethyl}-1,3-dihydro-benzoimidazol-2-one], for which the melting point is 92 to 94 °C.

In turn, `C=C(C)n1c(=O)n(CCN2CCN(c3ccc4[nH]ccc4c3)CC2)c2ccccc21` (as salt: fumaric acid salt) [Compound A8, 1-{2-[4-(1H-Indol-5-yl)-piperazin-1-yl]-ethyl}-3-isopropenyl-1,3-dihydro-benzoimidazol-2-one] returned a melting point of 112 to 114 °C.

By pIC50 is commonly meant the IC50 on a negative log10 scale, so that one unit is a factor of ten. For `C=C(C)n1c(=O)n(CCN2CCN(c3ccc4c(ccn4C)c3)CC2)c2ccccc21` [Compound A1, 1-Isopropenyl-3-{2-[4-(1-methyl-1H-indol-5-yl)-piperazin-1-yl]-ethyl}-1,3-dihydro-benzoimidazol-2-one], the pIC50 is below 6.00 in data set [1], 7.85 in data set [2] and 6.21 in data set [3].

`Cn1ccc2cc(N3CCN(CCn4c(=O)n(C5=CCCCC5)c5ccccc54)CC3)ccc21` [Compound A2, 1-Cyclohex-1-enyl-3-{2-[4-(1-methyl-1H-indol-5-yl)-piperazin-1-yl]-ethyl}-1,3-dihydro-benzoimidazol-2-one]: the results for the pIC50 in data set [1], in data set [2] and in data set [3] were 5.96, 8.09 and 5.52, respectively.

Turning to `Cn1ccc2ccc(N3CCN(CCn4c(=O)n(C5=CCCCC5)c5ccccc54)CC3)cc21` [Compound A3, 1-Cyclohex-1-enyl-3-{2-[4-(1-methyl-1H-indol-6-yl)-piperazin-1-yl]-ethyl}-1,3-dihydro-benzoimidazol-2-one], the pIC50 in data set [1] was 5.77; in data set [2], 8.48; in data set [3], 5.96.

As to `C=C(C)n1c(=O)n(CCN2CCN(c3ccc4ccn(C)c4c3)CC2)c2ccccc21` [Compound A4, 1-Isopropenyl-3-{2-[4-(1-methyl-1H-indol-6-yl)-piperazin-1-yl]-ethyl}-1,3-dihydro-benzoimidazol-2-one], the pIC50 is 5.89 in data set [1], 8.32 in data set [2] and 7.21 in data set [3].

For the compound `C=C(C)n1c(=O)n(CCN2CCN(c3ccc4cc[nH]c4c3)CC2)c2ccccc21` [Compound A5], the melting point fell in the range of 195 to 197 °C. For the same compound, the pIC50 in data set [1] is 5.89. Further, in data set [2], the pIC50 is 8.41. The pIC50 in data set [3] is 6.96.

`O=c1n(CCN2CCN(c3ccc4cc[nH]c4c3)CC2)c2ccccc2n1C1=CCCCC1` [Compound A6, 1-Cyclohex-1-enyl-3-{2-[4-(1H-indol-6-yl)-piperazin-1-yl]-ethyl}-1,3-dihydro-benzoimidazol-2-one] had a melting point of 171 to 173 °C. The pIC50 in data set [1] is 7.57. Further, the pIC50 in data set [2] was 8.36. Moreover, in data set [3], the pIC50 is 6.80.

Regarding `O=c1n(CCN2CCN(c3ccc4[nH]ccc4c3)CC2)c2ccccc2n1C1=CCCCC1` [Compound A7, 1-Cyclohex-1-enyl-3-{2-[4-(1H-indol-5-yl)-piperazin-1-yl]-ethyl}-1,3-dihydro-benzoimidazol-2-one], the figures for the pIC50 in data set [1], in data set [2] and in data set [3] were 5.64, 6.72 and 5.92, respectively.

As for `C=C(C)n1c(=O)n(CCN2CCN(c3ccc4[nH]ccc4c3)CC2)c2ccccc21` [Compound A8, 1-{2-[4-(1H-Indol-5-yl)-piperazin-1-yl]-ethyl}-3-isopropenyl-1,3-dihydro-benzoimidazol-2-one], the pIC50 in data set [1] was below 6.00; in data set [2], 6.47; in data set [3] it was 6.54.

The values are drawn from patent publication US20120220604A1, “PIPERAZINYL-ALKYL-BENZOIMIDAZOL-2-ONE DERIVATIVES AND THEIR USE AS MONOAMINE NEUROTRANSMITTER RE-UPTAKE INHIBITORS” (NeuroSearch A/S, priority 2009, published 2012).
